Data reported in patent US5143839A, “Assay of endopeptidases and novel purified bacterial enzyme” (Ramot Ltd., priority 1989, dated 1992).
Starred links: 1 amine or outer side, 2 acyl side, 3 side chain; linkers in the order of their positions; H or OH if unused. Residues, ends and D or L forms follow the SMILES beside them. *: point of attachment. pNA = O=[N+]([O-])c1ccc(N*)cc1; Suc = O=C(CCC(=O)[*:2])[*:1]

What was measured:
[1] = tested on: Human neutrophils; assay: Hydrolysis of the substrate by human neutrophils; assay type: cell-based; settings: substrate 0.4 mM, pH 7.5; neutrophils from a healthy donor, 5×10^5 cells/ml
Procedure: (§1) Neutral endopeptidase and neutral proteinase activities were assayed by the two-stage assay using the synthetic substrate Suc-Ala-Ala-Leu-NH-Np supplemented with Streptomyces griseus aminopeptidase, usually 6-7 μg/ml. Assays were performed in 0.1M NaCl-0.05M Tris.HCl, pH 7.5 at 25° C., unless otherwise stated, with or without 0.01M CaCl2. Assay volume was 1 ml or 2.5 ml when using a Varian Techtron spectrophotometer or 0.2 ml at 23° C. when performed with microplates (Munc Immuno Plate II F) using a Kinetic Microplate Reader (Molecular Devices Corp.). Activity was measured by following the increase in absorbance at 405 nm, due to the release of 4-nitroaniline, E405 =10,600M^-1 cm^-1 [14 ]. Molar concentration of thermolysin was estimated using A280 1% =17.65 [15] and molecular mass of 34,600 Da; molar concentration of bovine kidney neutral endopeptidase by protein determination and molecular mass of 90 kDa, deduced from SDS PAGE. Both endopeptidase 24.11 from bovine kidney and thermolysin cleave the Ala-Leu bond of the compound at a very fast rate (Table 3). The Leu residue of the substrate interacts with the major hydrophobic specificity sites of the enzymes (S'1), whereas the two Ala residues interact with additional subsites (S1, S2), thereby contributing to catalysis and/or binding. Even the 4-nitroaniline leaving group probably interacts with the enzyme at subsite S'2. […]

[2] = molecular target: T1, Endopeptidase 24.11 from bovine kidney (Bos taurus, UniProt E1BPL8); assay: Two-stage assay with Suc-Ala-Ala-Leu-NH-Np plus S. griseus aminopeptidase: inhibition by phosphoramidon; assay type: biochemical
T1 construct: Endopeptidase 24.11 from bovine kidney was purified by Triton X-100 extraction; from tissue; host or cells: bovine kidney
T1 sequence (E1BPL8 1-750): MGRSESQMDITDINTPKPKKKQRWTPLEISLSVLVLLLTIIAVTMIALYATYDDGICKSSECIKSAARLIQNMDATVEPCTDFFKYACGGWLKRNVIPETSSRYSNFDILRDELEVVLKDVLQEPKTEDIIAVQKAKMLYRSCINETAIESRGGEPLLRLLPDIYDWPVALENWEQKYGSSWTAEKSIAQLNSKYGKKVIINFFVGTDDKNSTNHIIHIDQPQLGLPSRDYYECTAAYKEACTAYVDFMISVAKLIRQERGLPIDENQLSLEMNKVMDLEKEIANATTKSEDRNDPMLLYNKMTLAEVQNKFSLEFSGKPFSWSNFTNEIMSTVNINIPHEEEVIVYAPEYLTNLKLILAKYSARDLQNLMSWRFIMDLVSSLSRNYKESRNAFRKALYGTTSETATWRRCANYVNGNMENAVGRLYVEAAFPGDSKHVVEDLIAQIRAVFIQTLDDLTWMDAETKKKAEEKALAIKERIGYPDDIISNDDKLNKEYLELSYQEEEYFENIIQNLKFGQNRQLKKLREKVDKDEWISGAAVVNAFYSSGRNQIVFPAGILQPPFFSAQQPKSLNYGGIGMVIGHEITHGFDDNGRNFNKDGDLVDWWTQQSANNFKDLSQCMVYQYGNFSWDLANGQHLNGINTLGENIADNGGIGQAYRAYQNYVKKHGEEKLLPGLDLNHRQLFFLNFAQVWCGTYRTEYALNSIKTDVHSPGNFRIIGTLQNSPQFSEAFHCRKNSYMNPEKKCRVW
Procedure: (§2) Neutral endopeptidase and neutral proteinase activities were assayed by the two-stage assay using the synthetic substrate Suc-Ala-Ala-Leu-NH-Np supplemented with Streptomyces griseus aminopeptidase, usually 6-7 μg/ml. Assays were performed in 0.1M NaCl-0.05M Tris.HCl, pH 7.5 at 25° C., unless otherwise stated, with or without 0.01M CaCl2. Assay volume was 1 ml or 2.5 ml when using a Varian Techtron spectrophotometer or 0.2 ml at 23° C. when performed with microplates (Munc Immuno Plate II F) using a Kinetic Microplate Reader (Molecular Devices Corp.). Activity was measured by following the increase in absorbance at 405 nm, due to the release of 4-nitroaniline, E405 =10,600M^-1 cm^-1 [14 ]. Molar concentration of thermolysin was estimated using A280 1% =17.65 [15] and molecular mass of 34,600 Da; molar concentration of bovine kidney neutral endopeptidase by protein determination and molecular mass of 90 kDa, deduced from SDS PAGE. Both endopeptidase 24.11 from bovine kidney and thermolysin cleave the Ala-Leu bond of the compound at a very fast rate (Table 3). The Leu residue of the substrate interacts with the major hydrophobic specificity sites of the enzymes (S'1), whereas the two Ala residues interact with additional subsites (S1, S2), thereby contributing to catalysis and/or binding. Even the 4-nitroaniline leaving group probably interacts with the enzyme at subsite S'2. Previously reported assays of endopeptidase 24.11 usually utilized a hydrophobic Phe residue, but Leu seems preferable in reaching higher kcat values. The rapid hydrolysis of the Leu residue is also preferable for the present two-stage assay utilizing Steptomyces aminopeptidase, since this enzyme very rapidly hydrolyzes the product of the endopeptidase attack, Leu-NH-Np. The rapid hydrolysis coupled with Km values in the 1 mM range and overall kcat /Km values in the 10^6 M^-1 s^-1 range (Table 3), render the substrate most suitable for detailed kinetic investigations of the enzymes and for detection of the 24.11 and 24.4 classes of enzymes in mammalian tissues and in bacterial extracellular fluids, respectively.
(§3) Like other previously reported substrates for endopeptidase 24.11, the substrate employed may, in principle, be hydrolyzed by chymotrypsin-like enzymes. To assess the contribution of the neutral endopeptidases and neutral proteinases 1 the observed color development, the specific inhibitor of these classes of enzymes phosphoramidon was added (Table 4).
(§4) Inhibition was measured at pH 7.5, 25° C., in the presence of 10 mM CaCl2 except for the neutrophils that were assayed at 37° C. and in the absence of added Ca^2+. The substrate Suc-Ala-Ala-Leu-NH-Npat 0.4 mM was used. […]

[3] = molecular target: T2, Thermolysin (Bacillus thermoproteolyticus, UniProt P00800); assay: as above; assay type: biochemical
T2 sequence (P00800 233-548): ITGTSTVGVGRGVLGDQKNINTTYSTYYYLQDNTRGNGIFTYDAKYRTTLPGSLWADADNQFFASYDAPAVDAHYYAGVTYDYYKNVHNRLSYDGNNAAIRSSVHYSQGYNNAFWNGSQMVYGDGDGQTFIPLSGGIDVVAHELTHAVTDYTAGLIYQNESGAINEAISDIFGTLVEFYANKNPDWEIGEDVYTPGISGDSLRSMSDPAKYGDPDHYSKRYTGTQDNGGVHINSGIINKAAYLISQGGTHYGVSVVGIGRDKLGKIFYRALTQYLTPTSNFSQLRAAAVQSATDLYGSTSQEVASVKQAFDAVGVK
Procedure: as §2, §3, §4

[4] = molecular target: T3, B. cereus culture (Bacillus cereus, UniProt P05806); assay: Two-stage assay on bacterial culture filtrate: inhibition by phosphoramidon; assay type: biochemical
T3 construct: B. cereus culture filtrate, 5 μl/ml substrate; endogenous in cells; host or cells: Bacillus cereus X-3 DSM 3101 culture filtrate
Procedure: Bacillus cereus (X-3 DSM 3101, German Collection of Microorganisms, Braunschweig, FRG) containing the neural proteinase were obtained by overnight cultivation in a rich medium supplemented with calcium chloride.
as §1, with “PAGE.” for “PAGE. Both endopeptidase 24.11 from bovine kidney and thermolysin cleave the Ala-Leu bond of the compound at a very fast rate (Table 3). The Leu residue of the substrate interacts with the major hydrophobic specificity sites of the enzymes (S'1), whereas the two Ala residues interact with additional subsites (S1, S2), thereby contributing to catalysis and/or binding. Even the 4-nitroaniline leaving group probably interacts with the enzyme at subsite S'2.”
(§5) Inhibition was measured at pH 7.5, 25° C., in the presence of 10 mM CaCl2 except for the neutrophils that were assayed at 37° C. and in the absence of added Ca^2+. […]

[5] = tested on: Human neutrophils; assay: Two-stage assay on intact cells: inhibition by phosphoramidon; assay type: cell-based
Procedure: as §1, with “3).” for “3). The Leu residue of the substrate interacts with the major hydrophobic specificity sites of the enzymes (S'1), whereas the two Ala residues interact with additional subsites (S1, S2), thereby contributing to catalysis and/or binding. Even the 4-nitroaniline leaving group probably interacts with the enzyme at subsite S'2.”
as §5

T3 sequence (P05806 250-566): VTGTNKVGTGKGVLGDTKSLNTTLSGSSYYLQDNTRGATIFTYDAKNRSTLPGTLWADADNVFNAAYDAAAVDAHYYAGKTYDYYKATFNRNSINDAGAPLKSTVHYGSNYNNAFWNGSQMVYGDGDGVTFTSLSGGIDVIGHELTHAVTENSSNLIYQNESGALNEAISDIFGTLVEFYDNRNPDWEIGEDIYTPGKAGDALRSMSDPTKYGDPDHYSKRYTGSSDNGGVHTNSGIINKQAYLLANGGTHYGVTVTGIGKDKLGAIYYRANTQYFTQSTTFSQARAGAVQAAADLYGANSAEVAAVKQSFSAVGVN

SMILES | rate of substrate hydrolysis [1] | inhibition at 3.6 µM ([2]; phosphoramidon 3.6 μM, pH 7.5, 25° C., 10 mM CaCl2, substrate 0.4 mM, enzyme 2.2×10^-9 M) [%] | effect of inhibitor on activity ([2]; purified enzyme) | inhibition at 18 µM ([3]; phosphoramidon 18.0 μM, pH 7.5, 25° C., 10 mM CaCl2, substrate 0.4 mM, enzyme 1.5×10^-9 M) [%] | effect of inhibitor on activity ([3]; purified enzyme) | effect of inhibitor on enzymatic reaction ([4]; bacterial culture) | inhibition at 18 µM ([4]; phosphoramidon 18.0 μM, pH 7.5, 25° C., 10 mM CaCl2, substrate 0.4 mM, culture filtrate 5 μl/ml substrate) [%] | inhibition at 3.6 µM ([5]; Homo sapiens, Neutrophil, phosphoramidon 3.6 μM, pH 7.5, 37° C., no added Ca2+, substrate 0.4 mM, 5×10^5 cells/ml) [%] | effect of inhibitor on enzymatic reaction ([5]; intact neutrophils)
CC(C)C[C@H](NC(=O)[C@H](C)NC(=O)[C@H](C)NC(=O)CCC(=O)O)C(=O)Nc1ccc([N+](=O)[O-])cc1 [Suc-Ala-Ala-Leu-NH-Np] (Suc-Ala-Ala-Leu-pNA) | ~ 1.3 nmoles/min/10^6 cells | – | – | – | – | – | – | – | –
CC(C)C[C@H](NP(=O)(O)O[C@@H]1O[C@@H](C)[C@H](O)[C@@H](O)[C@H]1O)C(=O)N[C@@H](Cc1c[nH]c2ccccc12)C(=O)O [phosphoramidon] | – | > 99 | completely abolishes the activity | > 99 | completely abolishes the activity | strongly inhibits | ~95 | > 95 | strongly inhibits
